The nature of the test: Odour description on paper blotter. To be noted: 1% solution in EtOH on paper blotter, 24 h.
With `CC=CCC(C)(Cc1ccccc1)Oc1ccc(C=O)cc1OCC` (stereo not drawn) [Example 21, 3-ethoxy-4-((2-methyl-1-phenylhex-4-en-2-yl)oxy)benzaldehyde], the Odour description entry is “powdery (vanilla) creamy (milky)”.
`C=CCC(CCCCCC)Oc1ccc(C=O)cc1OCC` (stereo not drawn) [Example 22, 4-(dec-1-en-4-yloxy)-3-ethoxybenzaldehyde]: the Odour description result is “dry powdery (cedarwood, vanilla)”.
Take `C=CCC(CCCCCC)Oc1ccc(CCC(C)=O)cc1` (stereo not drawn) [Example 23, 4-(4-(dec-1-en-4-yloxy)phenyl)butan-2-one]: the Odour description result is on record as “fruity (raspberry, gourmand) sugary”.
Consider `C=CCC(CCCCCC)Oc1cc(C)c(C(=O)OC)c(O)c1C` (stereo not drawn) [Example 24, methyl 4-(dec-1-en-4-yloxy)-2-hydroxy-3,6-dimethylbenzoate], for which the Odour description result is on record as “powdery (mossy, evernyl)”.
Turning to `C=CCC(CCCCCCCCCC)Oc1ccccc1C(=O)OC` (stereo not drawn) [Example 25, methyl 2-(tetradec-1-en-4-yloxy)benzoate], the Odour description entry was “aldehydic, metallic, green, citrus”.
In the case of `C=CCC(CCCCCCCCCC)Oc1ccccc1C(=O)CC` (stereo not drawn) [Example 26, 1-(2-(tetradec-1-en-4-yloxy)phenyl)propan-1-one], the Odour description result is “aldehydic, metallic, green, citrus”.
For `C=CCC(CCCCCCCCCC)Oc1ccc(C=O)cc1OCC` (stereo not drawn) [Example 27, 3-ethoxy-4-(tetradec-1-en-4-yloxy)benzaldehyde] the value was “powdery, vanilla, aldehydic, metallic, green, citrus, mandarin”; for `CC/C=C\C/C=C\CCOc1ccc(CCC(C)=O)cc1` [Example 31, 4-(4-(((3Z,6Z)-nona-3,6-dien-1-yl)oxy)phenyl)butan-2-one], “green, leaf aldehyde, green apple, fruity”; for `CC/C=C\C/C=C\CCOc1ccccc1OC` [Example 32, 1-methoxy-2-(((3Z,6Z)-nona-3,6-dien-1-yl)oxy)benzene], “green, leaf aldehyde”.
Take `CC/C=C\C/C=C\CCOc1ccc2ccccc2c1` [Example 33, 2-(((3Z,6Z)-nona-3,6-dien-1-yl)oxy)naphthalene]: the Odour description entry was “weak, green, leaf aldehyde”.
`CC/C=C\C/C=C\CCOc1ccc(C=O)cc1OC` [Example 34, 3-methoxy-4-(((3Z,6Z)-nona-3,6-dien-1-yl)oxy)benzaldehyde]: the Odour description entry is “green, leaf aldehyde, powdery, vanilla”.
For `C=CCC(CCCCCCCCC)Oc1ccc(C=O)cc1OC` (stereo not drawn) [Example 35, 3-methoxy-4-(tridec-1-en-4-yloxy)benzaldehyde], the Odour description entry is reported as “powdery, vanilla, aldehydic, green, metallic, mandarin”.
Regarding `C=CCC(CCCCCCCCC)Oc1ccc(COC)cc1OCC` (stereo not drawn) [Example 37, 2-ethoxy-4-(methoxymethyl)-1-(tridec-1-en-4-yloxy)benzene], the Odour description result is reported as “citrus, mandarin, green”.
The result for `CCC=CCC(CCCCCCCCC)Oc1ccc(CCC(C)=O)cc1` (stereo not drawn) [Example 39, 4-(4-(pentadec-3-en-6-yloxy)phenyl)butan-2-one] reads “raspberry, mandarin, citrus, aldehydic, fresh”; that for `CCC=CCC(Oc1ccc(C=O)cc1OCC)C(=O)OCC` (stereo not drawn) [Example 40, ethyl 2-(2-ethoxy-4-formylphenoxy)hept-4-enoate], “powdery (vanilla)”.
The result for `CC/C=C\CC(C/C=C\CC)Oc1ccc(C=O)cc1OCC` [Example 41, 3-ethoxy-4-(((3Z,8Z)-undeca-3,8-dien-6-yl)oxy)benzaldehyde] reads “vanilla, powdery”.
The result for `CC=CCC(CCCCCC)Oc1ccc(C=O)cc1OCC` (stereo not drawn) [Example 43, 3-ethoxy-4-(undec-2-en-5-yloxy)benzaldehyde] reads “powdery, creamy, vanilla”.
As to `CCC=CCC(CCCCCC)Oc1ccc(C=O)cc1OCC` (stereo not drawn) [Example 44, 4-(dodec-3-en-6-yloxy)-3-ethoxybenzaldehyde], the Odour description result is recorded as “woody, cedarwood, vanilla”.

Source of the values: patent publication US20240417359A1, “PRECURSORS OF PHENOLIC FRAGRANT COMPOUNDS” (GIVAUDAN SA, priority 2021, published 2024).
